Drawing on patent US12336981B2, “Compounds and compositions for the inhibition of NAMPT” (Valo Health, Inc., priority 2010, dated 2025), this text covers IC50 for 59 compounds.

Broadly, the IC50 is the concentration needed to halve the response being measured.

Assay [1] has as its target T1, NAMPT (Homo sapiens, UniProt P43490).
T1 construct: His tag; host or cells: E. coli
Kind of assay: Biochemical inhibition assay: NAMPT enzymatic reaction, NMN quantified by mass spectrometry. To be noted: NAMPT enzymatic assay; read-out: Biochem IC50. The essentials:
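Inhibition of E. coli-expressed His-tagged human NAMPT, measured as NMN formation by mass spectrometry after a 30 min room-temperature reaction containing 1 μM NAM, 100 μM PRPP and 2.5 mM ATP.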

Assay [2] concerns A2780 cells. Kind of assay: In-vitro cell proliferation assay (SRB), A2780 cells. It is filed as cell-based. To be noted: A2780 cells, 72 hours, SRB, read-out: A2780 IC50. An outline of the steps: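 SRB read-out: 6% TCA fix 1 h at 4° C., stain, Tris solubilize, A570. Media-only background subtracted; % inhibition from two compound concentrations.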

Structures are written as SMILES. “And” between values parts separate entries of the source, which are not always exact repeats. Equal values may be shown once. Read-outs that look alike come from different tables or passages of the source.

T1 sequence (P43490 whole entry): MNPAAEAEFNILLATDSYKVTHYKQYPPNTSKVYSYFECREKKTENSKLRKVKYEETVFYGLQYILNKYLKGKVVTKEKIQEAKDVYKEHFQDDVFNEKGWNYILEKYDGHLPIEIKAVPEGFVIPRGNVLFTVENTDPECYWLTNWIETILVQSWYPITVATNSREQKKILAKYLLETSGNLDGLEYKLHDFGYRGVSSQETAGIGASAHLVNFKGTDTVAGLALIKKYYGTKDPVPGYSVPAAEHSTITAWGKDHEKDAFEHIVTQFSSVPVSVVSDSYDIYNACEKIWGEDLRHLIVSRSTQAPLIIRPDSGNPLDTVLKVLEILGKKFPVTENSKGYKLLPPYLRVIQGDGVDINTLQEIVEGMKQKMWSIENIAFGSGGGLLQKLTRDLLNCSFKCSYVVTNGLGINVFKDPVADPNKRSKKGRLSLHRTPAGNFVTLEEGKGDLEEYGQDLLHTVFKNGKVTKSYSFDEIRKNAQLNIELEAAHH

Consider `CCN(CC)C(=O)c1cc(F)cc(S(=O)(=O)c2ccc(CNC(=O)c3cc4ccncc4o3)cc2)c1`, for which the IC50 in assay [1] worked out at 10.3 nM; in assay [2] (Homo sapiens, A2780, 72 h), 3.8 nM.
On to `CCN(CC)C(=O)c1cc(F)cc(S(=O)(=O)c2ccc(CNC(=O)c3cc4cnccc4[nH]3)cc2)c1`, for which the half-maximal inhibitory concentration (IC50) in assay [1] is 9.3 nM; in assay [2] (Homo sapiens, A2780, 72 h), 3.3 nM.
For `O=C(NCc1ccc(S(=O)(=O)c2cccc(OC(F)F)c2)cc1)c1cc2ccncc2o1`, in that order: 2.8 nM and 3 nM.
`O=C(NCc1ccc(S(=O)(=O)c2cccc(OC(F)F)c2)cc1)c1cnc2nccn2c1`: the IC50 stood at 2.1 nM in assay [1] and 5 nM in assay [2] (Homo sapiens, A2780, 72 h).
For the compound `CN(C)S(=O)(=O)c1cccc(S(=O)(=O)c2ccc(CNC(=O)c3cnc4nccn4c3)cc2)c1`, the IC50 worked out at 2 nM in assay [1] and 11.2 nM in assay [2] (Homo sapiens, A2780, 72 h).
Regarding `CCS(=O)(=O)c1cccc(S(=O)(=O)c2ccc(CNC(=O)c3cc4ccncc4s3)cc2)c1`, the IC50 in assay [1] was found to be 2.8 nM; in assay [2] (Homo sapiens, A2780, 72 h), 5.4 nM.
Turning to `CCS(=O)(=O)c1cccc(S(=O)(=O)c2ccc(CNC(=O)c3ccc4nccn4c3)cc2)c1`, the IC50 in assay [1] is 13.5 nM; in assay [2] (Homo sapiens, A2780, 72 h), 6 nM.
On to `CCS(=O)(=O)c1cccc(S(=O)(=O)c2ccc(CNC(=O)c3cnc4nccn4c3)cc2)c1`, for which the IC50 in assay [1] was 2.7 nM; in assay [2] (Homo sapiens, A2780, 72 h), 64.5 nM.
For `CCNC(=O)c1cccc(S(=O)(=O)c2ccc(CNC(=O)c3cnc4nccn4c3)cc2)c1`, in that order: 3.1 nM and 65.5 nM.
For `CCNC(=O)c1cccc(S(=O)(=O)c2ccc(CNC(=O)c3cc4ccncc4o3)cc2)c1`, the 50% inhibitory concentration (IC50) was determined as 6 nM in assay [1] and 6.4 nM in assay [2] (Homo sapiens, A2780, 72 h).
Consider `COCc1cccc(S(=O)(=O)c2ccc(CNC(=O)c3cc4ccncc4s3)cc2)c1`, for which the half-inhibitory concentration (IC50) is 2.6 nM in assay [1] and 6.7 nM in assay [2] (Homo sapiens, A2780, 72 h).
The corresponding values for `COCc1cccc(S(=O)(=O)c2ccc(CNC(=O)c3cc4ccncc4o3)cc2)c1` are 18.5 nM and 13.4 nM.
The corresponding values for `COCc1cccc(S(=O)(=O)c2ccc(CNC(=O)c3ccc4nccn4c3)cc2)c1` are 6.7 nM and 6.8 nM.
Consider `CNC(=O)c1cccc(S(=O)(=O)c2ccc(CNC(=O)c3cc4ccncc4o3)cc2)c1`, for which the IC50 amounted to 8.1 nM in assay [1] and 14.3 nM in assay [2] (Homo sapiens, A2780, 72 h).
For `CNC(=O)c1cccc(S(=O)(=O)c2ccc(CNC(=O)c3cnc4nccn4c3)cc2)c1`, the IC50 in assay [1] is 3.7 nM; in assay [2] (Homo sapiens, A2780, 72 h), 100 to 1000 nM.
The corresponding values for `O=C(NCc1ccc(S(=O)(=O)c2cccc(N3CCOCC3)c2)cc1)c1cnc2[nH]ncc2c1` are 16.7 nM and 13 nM.
For `O=C(NCc1ccc(S(=O)(=O)c2cccc(N3CCOCC3)c2)cc1)c1cnc2nccn2c1`, in that order: 2.7 nM and 13.5 nM.
For the compound `O=C(NCc1ccc(S(=O)(=O)c2cccc(N3CCOCC3)c2)cc1)c1cc2ccncc2s1`, the IC50 in assay [1] was 4 nM and 3.6 nM; in assay [2] (Homo sapiens, A2780, 72 h) it was 1.9 nM.
`O=C(NCc1ccc(S(=O)(=O)c2cccc(N3CCOCC3)c2)cc1)c1cc2ccncc2o1`: the IC50 is 5 nM in assay [1] and 5.6 nM in assay [2] (Homo sapiens, A2780, 72 h).
For `O=C(NCc1ccc(S(=O)(=O)c2cccc(N3CCOCC3)c2)cc1)c1ccc2nccn2c1`, in that order: 7.7 nM and 3.3 nM.
Turning to `O=C(NCc1ccc(S(=O)(=O)c2cccc(N3CCCCC3)c2)cc1)c1cnc2nccn2c1`, the half-inhibitory concentration (IC50) in assay [1] was 5.1 nM and 1.2 nM; in assay [2], 5.7 nM; in assay [2] (Homo sapiens, A2780, 72 h) it was 11.4 nM.
As to `O=C(NCc1ccc(S(=O)(=O)c2cccc(N3CCCCC3)c2)cc1)c1cnc2[nH]ncc2c1`, the IC50 worked out at 53.6 nM in assay [1] and 14 nM in assay [2] (Homo sapiens, A2780, 72 h).
Turning to `O=C(NCc1ccc(S(=O)(=O)c2cccc(N3CCCCC3)c2)cc1)c1ccc2ncsc2c1`, the IC50 in assay [1] is 21 nM; in assay [2] (Homo sapiens, A2780, 72 h), 100 to 1000 nM.
The corresponding values for `O=C(NCc1ccc(S(=O)(=O)c2cccc(N3CCCCC3)c2)cc1)c1cc2ccncc2s1` are 16.7 nM and 13.6 nM.
`O=C(NCc1ccc(S(=O)(=O)c2cccc(N3CCCCC3)c2)cc1)c1ccc2nccn2c1`: the IC50 in assay [1] worked out at 11.4 nM; in assay [2] (Homo sapiens, A2780, 72 h), 3.4 nM.
For `O=C(NCc1ccc(S(=O)(=O)c2cccc(N3CCCCC3)c2)cc1)c1cc2cnccc2[nH]1`, in that order: 14.4 nM and 3.3 nM.
For `O=C(NCc1ccc(S(=O)(=O)c2cccc(CN3CCCCC3)c2)cc1)c1cnc2nccn2c1`, in that order: 1.9 nM and 30.6 nM.
For `O=C(NCc1ccc(S(=O)(=O)c2cccc(CN3CCCCC3)c2)cc1)c1ccc2nccn2c1`, in that order: 9.1 nM and 3.5 nM.
For the compound `CC(C)c1cccc(S(=O)(=O)c2ccc(CNC(=O)c3cc4ccncc4o3)cc2)c1`, the IC50 is 4.5 nM in assay [1] and 7 nM in assay [2] (Homo sapiens, A2780, 72 h).
For `CC(C)c1cccc(S(=O)(=O)c2ccc(CNC(=O)c3cnc4nccn4c3)cc2)c1`, in that order: 2.9 nM and 5.3 nM.
For `CC(C)c1cccc(S(=O)(=O)c2ccc(CNC(=O)c3cnc4[nH]ncc4c3)cc2)c1`, in that order: 13.9 nM and 6.3 nM.
As for `CC(C)Oc1cccc(S(=O)(=O)c2ccc(CNC(=O)c3cnc4[nH]ncc4c3)cc2)c1`, the IC50 in assay [1] was determined as 46.1 nM; in assay [2] (Homo sapiens, A2780, 72 h), 24.5 nM.
For `CC(C)Oc1cccc(S(=O)(=O)c2ccc(CNC(=O)c3cc4ccncc4o3)cc2)c1`, in that order: 12.6 nM and 14.4 nM.
The corresponding values for `CC(C)Oc1cccc(S(=O)(=O)c2ccc(CNC(=O)c3cnc4nccn4c3)cc2)c1` are 2.3 nM and 10.5 nM.
For `CCCS(=O)(=O)Nc1cccc(S(=O)(=O)c2ccc(CNC(=O)c3cnc4nccn4c3)cc2)c1`, in that order: 2.3 nM and 86.2 nM.
Consider `O=C(NCc1ccc(S(=O)(=O)c2cccc(-c3ncccn3)c2)cc1)c1ccc2nccn2c1`, for which the IC50 in assay [1] came to 21.9 nM; in assay [2] (Homo sapiens, A2780, 72 h), 3.8 nM.
The corresponding values for `O=C(NCc1ccc(S(=O)(=O)c2cccc(N3CCCC3)c2)cc1)c1cnc2[nH]ncc2c1` are 17.1 nM and 12.8 nM.
For `O=C(NCc1ccc(S(=O)(=O)c2cccc(N3CCCC3)c2)cc1)c1cc2ccncc2o1`, in that order: 8.2 nM and 7.4 nM.
For `O=C(NCc1ccc(S(=O)(=O)c2cccc(N3CCCC3)c2)cc1)c1cc2cnccc2[nH]1`, the IC50 in assay [1] came to 13.4 nM; in assay [2] (Homo sapiens, A2780, 72 h), 2.8 nM.
Regarding `O=C(NCc1ccc(S(=O)(=O)c2cccc(N3CCCC3)c2)cc1)c1cnc2nccn2c1`, the IC50 in assay [1] is 2.5 nM; in assay [2] (Homo sapiens, A2780, 72 h), 4.1 nM.
The corresponding values for `O=C(NCc1ccc(S(=O)(=O)c2cccc(N3CCCC3)c2)cc1)c1cc2ccncc2s1` are 1.9 nM and 2.5 nM.
For `O=C(NCc1ccc(S(=O)(=O)c2cccc(N3CCCC3)c2)cc1)c1ccc2nccn2c1`, in that order: 13.6 nM and 1.6 nM.
Turning to `O=C(NCc1ccc(S(=O)(=O)c2cccc(N3CCCC3)c2)cc1)c1ccc2ncsc2c1`, the half-inhibitory concentration (IC50) in assay [1] was 8.8 nM; in assay [2] (Homo sapiens, A2780, 72 h), 1000 to 10000 nM.
The corresponding values for `O=C(NCc1ccc(S(=O)(=O)c2cccc(OC(F)(F)F)c2)cc1)c1cnc2nccn2c1` are 2.5 nM and 2.7 nM.
The corresponding values for `O=C(NCc1ccc(S(=O)(=O)c2cccc(OC(F)(F)F)c2)cc1)c1cnc2[nH]ncc2c1` are 20.4 nM and 7.1 nM.
The corresponding values for `O=C(NCc1ccc(S(=O)(=O)c2cccc(OC(F)(F)F)c2)cc1)c1cc2ccncc2o1` are 3.4 nM and 6.7 nM.
Regarding `O=C(NCc1ccc(S(=O)(=O)c2cccc(C(F)(F)F)c2)cc1)c1ccc2ncsc2c1`, the half-inhibitory concentration (IC50) in assay [1] worked out at 6 nM; in assay [2] (Homo sapiens, A2780, 72 h) it was 548 nM.
For `O=C(NCc1ccc(S(=O)(=O)c2cccc(C(F)(F)F)c2)cc1)c1cnc2nccn2c1`, in that order: 2.7 nM and 3 nM.
As for `O=C(NCc1ccc(S(=O)(=O)c2cccc(C(F)(F)F)c2)cc1)c1cc2ccncc2o1`, the IC50 came to 5.4 nM in assay [1] and 4.8 nM in assay [2] (Homo sapiens, A2780, 72 h).
The corresponding values for `O=C(NCc1ccc(S(=O)(=O)c2ccc(C(F)(F)F)c(Cl)c2)cc1)c1ccc2nccn2c1` are 2.9 nM and 1.2 nM.
The corresponding values for `O=C(NCc1ccc(S(=O)(=O)c2ccc(C(F)(F)F)c(Cl)c2)cc1)c1cc2cnccc2[nH]1` are 13.3 nM and 7.7 nM.
Take `O=C(NCc1ccc(S(=O)(=O)c2ccc(C(F)(F)F)c(Cl)c2)cc1)c1cc2ccncc2s1`: the 50% inhibitory concentration (IC50) was 3 nM in assay [1] and 2.3 nM in assay [2] (Homo sapiens, A2780, 72 h).
As to `O=C(NCc1ccc(S(=O)(=O)c2ccc(C(F)(F)F)c(Cl)c2)cc1)c1cc2ccncc2o1`, the IC50 in assay [1] worked out at 7.9 nM; in assay [2] (Homo sapiens, A2780, 72 h), 6.2 nM.
For `O=C(NCc1ccc(S(=O)(=O)c2ccc(C(F)(F)F)c(Cl)c2)cc1)c1cnc2nccn2c1`, in that order: 2.8 nM and 1.8 nM.
The corresponding values for `CCN(CC)C(=O)c1cc(Cl)cc(S(=O)(=O)c2ccc(CNC(=O)c3cc4ccncc4s3)cc2)c1` are 2.3 nM and 0.8 nM.
As to `CCN(CC)C(=O)c1cc(Cl)cc(S(=O)(=O)c2ccc(CNC(=O)c3cnc4nccn4c3)cc2)c1`, the IC50 is 0.9 nM in assay [1] and 1.2 nM in assay [2] (Homo sapiens, A2780, 72 h).
The corresponding values for `O=C(NCc1ccc(S(=O)(=O)c2cc(Cl)cc(CO)c2)cc1)c1ccc2nccn2c1` are 5.8 nM and 1.4 nM.
For `O=C(NCc1ccc(S(=O)(=O)c2cc(Cl)cc(CO)c2)cc1)c1cnc2nccn2c1`, the IC50 was 3.4 nM in assay [1] and 11.4 nM in assay [2] (Homo sapiens, A2780, 72 h).
For `O=C(NCc1ccc(S(=O)(=O)c2cc(Cl)cc(C(F)(F)F)c2)cc1)c1cnc2nccn2c1`, in that order: 4.4 nM and 0.4 nM.
